In patent US9212146B2, “Substituted pyridazinones for the treatment of tumors” (SHANGHAI INSTITUTE OF MATERIA MEDICA, CHINESE ACADEMY OF …, priority 2008, dated 2015):
Where two headings read alike, the source gives them in different places.

How the values were obtained:
[1] = test system: human liver cancer cells Bel-7402 transplanted tumor; type: in vivo; conditions: for Quantity of Animals Whose Tumors Vanished / Inhibition Rate (%) / Tumor Volume (mm^3): PO; for Quantity of Animals Whose Tumors Vanished: 5 animals per group; for Inhibition Rate (%) / Tumor Volume (mm^3): Bel-7402 on nude mice; for tumors vanished (animals/group): at the 11th day; for tumors vanished (animals/group) / toxicity / survivability of mice: intragastrically once a day for 11 days; for toxicity / survivability of mice: nude mice; for recrudescence of tumors: at the end of the experiment (17th day)
Text: Name and lot number: YHHU-744, a white powder, lot No.: No. c001471-106; YHHU-755, a white powder, lot No.: No. c001471-102; YHHU-756, a white powder, lot No.: No. c00147-106; YHHU-759, a white powder, lot No.: No. c001471-102; YHHU-776, a white powder, lot No.: No. c001471-107. Sorafenib was used as a positive control.
Formulation: YHHU-744, YHHU-755, YHHU-756, YHHU-759, YHHU-776 and the positive control were each diluted with 0.1% Tween-80 and distilled water to a desired concentration.
BALB/cA nude mice, 6-7 weeks old, ♀, were purchased from Shanghai SLAC Laboratory Animal Co. LTD. Certificate No.: SCXK (Shanghai) 2007-0005. Habitat: SPF level.
Human liver cancer cells Bel-7402 were inoculated on nude mice subcutaneously. After the tumor grew up to 300-450 mm^3, animals were grouped randomly (d0). The tumor volume was measured 2-3 times each week and the weights of mice were recorded. The tumor volume was calculated according to as the following equation. V=½×a×b^2 wherein, a and b are length and width, respectively. […]

[2] = test system: ovarian cancer cell line SK-OV-3; experiment: SRB proliferation assay, SK-OV-3; type: cell-based; conditions: Homo sapiens, 72 hours
Method: (§1) Protocol: the antineoplasmic activities in vitro of the compounds were assayed by a Sulforhodamine B (SRB) protocol. Tumor cells were cultivated at 37 under 5% CO2 in a RPMI 1640 medium or a DMEM medium (Gibco) containing 10% fetal bovine serum. Tumor cells were inoculated on a 96-well plate with a concentration of 0.4-1.0×10^4 cells per well according to the cell types. 24 hours later, the target compounds diluted 10 times were added, each compound having at least 5 concentrations. After treated by the compounds for 72 hours, the culture media were discarded, and the cells were fixed by 10% cold trichloroacetic acid, and then stained by Sulforhodamine B (SRB) solution. The uncombined SRB was washed off, and the SRB combined with protein was dissolved with Tris. OD values were recorded at 515 nm on an ELISA Reader, and the cell growth inhibition rate was calculated according to following equation: Inhibition rate=(ODcontrol−ODexperimental)/ODcontrol×100%
(§2) IC50 (50% inhibitory concentration) was calculated by using Logit method based on the inhibition rates at various concentration, and the results are shown in tables 1 and 2. […]

[3] = test system: human breast cancer cell line MDA-MB-231; experiment: SRB proliferation assay, MDA-MB-231; type: cell-based; conditions: MDA-MB-231, breast carcinoma, 72 hours
Method: as §1, §2

[4] = test system: human renal carcinoma cell line A498; experiment: SRB proliferation assay, A498; type: cell-based; conditions: 72 hours
Method: as §1, §2

[5] = test system: colon adenocarcinoma cell line HT-29; experiment: SRB proliferation assay, HT-29; type: cell-based; conditions: Homo sapiens, HT-29, colon carcinoma, 72 hours
Method: as §1, §2

[6] = test system: non-small cell lung cancer cell line NCI-H460; experiment: SRB proliferation assay, NCI-H460; type: cell-based; conditions: Homo sapiens, 72 hours
Method: as §1, §2

[7] = test system: human hepatocarcinoma cell line SIMM-7721; experiment: SRB proliferation assay, SIMM-7721; type: cell-based; conditions: SIMM-7721, liver cancer, 72 hours
Method: as §1, §2

[8] = test system: human colon cancer cell line SW-620; experiment: SRB proliferation assay, SW-620; type: cell-based; conditions: SW-620, colon carcinoma, 72 hours
Method: as §1, §2

[9] = test system: human hepatoma cell line Bel-7402; experiment: SRB proliferation assay, Bel-7402; type: cell-based; conditions: Homo sapiens, Bel-7402, 72 h
Method: as §1
IC50 (50% inhibitory concentration) was calculated by using Logit method based on the inhibition rates at various concentration, and the results are shown in tables 1 and 2.
The following cell lines were used: human hepatocarcinoma cell line […]; ovarian cancer cell line SK-OV-3; human breast cancer cell line MDA-MB-231; human renal carcinoma cell line A498; colon adenocarcinoma cell line HT-29; non-small cell lung cancer cell line NCI-H460; lung adenocarcinoma cell line A549; human colon cancer cell line SW-620; human hepatoma cell line Bel-7402; human breast carcinoma cell line SK-BR-3; and human umbilical vein endothelial cells (HUVEC).

[10] = test system: human breast carcinoma cell line SK-BR-3; experiment: SRB proliferation assay, SK-BR-3; type: cell-based; conditions: SK-BR-3, breast carcinoma, 72 hours
Method: as §1, §2

[11] = test system: human umbilical vein endothelial cells (HUVEC); experiment: SRB proliferation assay, HUVEC; type: cell-based; conditions: human umbilical vein endothelial cells (normal cells), 72 hours
Method: as §1, §2

liver cancer of animals = experiment: Curative effect against liver cancer of animals in vivo
[12] = test system: human liver cancer cells SMMC-7721 transplanted tumor; experiment: SMMC-7721 transplanted tumor on nude mice; type: in vivo; conditions: intragastrically once a day for 10 days; subcutaneous tumor on nude mice
Method: Experimental procedure: BALB/cA nude mice, 6-7 weeks old, ♀, were purchased from Shanghai SLAC Laboratory Animal Co. LTD. Certificate No.: SCXK (Shanghai) 2007-0005. Habitat: SPF level. The compounds were diluted with 0.5% CMC containing 0.1% Tween-80 to a desired concentration. Human liver cancer cells SMMC-7721 were inoculated on nude mice subcutaneously. After the tumor grew up to 100-200 mm^3, animals were grouped randomly (d0). Mice were consecutively administered with compounds intragastrically once a day for 10 days. The tumor volume was measured 2-3 times each week and the weights of mice were recorded. The tumor volume (V) was calculated according to the following equation: V=½×a×b^2, wherein, a and b are length and width, respectively.

[13] = BEL-7402 cultivated in vitro, given as bounds, read-out: The Inhibition Activities for Human Liver Cancer Cells BEL-7402 (IC50)

SMILES | IC50 [9, 13] [nM] | Quantity of Animals Whose Tumors Vanished ([1]; 100 mg/kg, QDx11) | Inhibition Rate (%) ([1]; 100 mg/kg, QDx11) | Tumor Volume (mm^3) ([1]; 100 mg/kg, QDx11) | tumors vanished (animals/group) [1] | toxicity / survivability of mice [1] | recrudescence of tumors [1] | other results
CNC(=O)c1cc(Oc2ccc(NC(=O)Nc3ccc(Cl)c(C(F)(F)F)c3)cc2)ccn1 [Sorafenib, reference compound] |  |  |  |  |  |  |  | Quantity of Animals Whose Tumors Vanished ([1]; 60 mg/kg, QDx16): 0; Inhibition Rate (%) ([1]; 60 mg/kg, QDx16): 50%; Tumor Volume (mm^3) ([1]; 60 mg/kg, QDx16): 279.8 mm^3
O=c1ccc(-c2ccc(N3CCCC3)c(C(F)(F)F)c2)n[nH]1 [YHHU-646] | < 10 |  |  |  |  |  |  | IC50 [2]: 3 nM; IC50 [3]: > 20000 nM; IC50 [4]: 4120 nM; IC50 [5]: 6300 nM; IC50 [6]: 24100 nM; IC50 [7]: < 100 nM; IC50 [8]: 5800 nM; IC50 ([9]; Bel-7402, liver cancer, Table 1, read-out: IC50): 0.7 nM; IC50 [10]: 7500 nM; IC50 [11]: 30 nM; curative effect against liver cancer of animals in vivo (liver cancer of animals): significant curative effect
CCNc1ccc(-c2ccc(=O)[nH]n2)cc1C(F)(F)F [YHHU-744] | < 10 | 4 | 98 | 343.7 | 4/5 | no significant toxicity was observed |  | 
O=c1ccc(-c2ccc(N3CCCCC3)c(C(F)(F)F)c2)n[nH]1 [YHHU-755] | < 10 | 5 | 100 | 350.4 | 5/5 | no significant toxicity was observed | no recrudescence was observed | 
O=c1ccc(-c2ccc(N3CCOCC3)c(C(F)(F)F)c2)n[nH]1 [YHHU-759] | < 10 | 5 | 100 | 367.9 | 5/5 | no significant toxicity was observed | no recrudescence was observed | growth of SMMC-7721 transplanted tumor [12]: significantly inhibited the growth
CCC(C)(C)Oc1ccc(-c2ccc(=O)[nH]n2)cc1C(F)(F)F [YHHU-773] | < 100 |  |  |  |  |  |  | 
COC(CNc1ccc(-c2ccc(=O)[nH]n2)cc1C(F)(F)F)OC [YHHU-774] | < 100 |  |  |  |  |  |  | 
O=c1ccc(-c2ccc(OCCN3CCOCC3)c(C(F)(F)F)c2)n[nH]1 [YHHU-775] | < 100 |  |  |  |  |  |  | 
O=c1ccc(-c2ccc(N3CCC(O)CC3)c(C(F)(F)F)c2)n[nH]1 [YHHU-776] | < 10 | 5 | 100 | 338.2 | 5/5 | no significant toxicity was observed | no recrudescence was observed | 
